Converted amounts (≈) assume the structure as drawn.
Tests used:
Format in all cases: functional, cell-based
[1] = tested on: A549; test: Cytotoxicity against human A549 cells after 48 hrs by MTT colorimetric assay; conditions: A549, 48 h
[2] = tested on: MCF7; test: Cytotoxicity against human MCF7 cells after 48 hrs by MTT colorimetric assay; conditions: MCF7, 48 h
[3] = Cytotoxicity against human OVCA2780 cells after 48 hrs by MTT colorimetric assay; conditions: A2780, 48 h
[4] = tested on: DU-145; test: Cytotoxicity against human DU145 cells after 48 hrs by MTT colorimetric assay; conditions: DU-145, 48 h
[5] = tested on: K562; test: Cytotoxicity against human K562 cells after 48 hrs by MTT colorimetric assay; conditions: K562, 48 h

`C=C(C(=O)O)[C@@H]1CC[C@@H]2[C@@H](C1)C(=O)C(O)=C1C(C)(C)[C@@H]3CC(=O)[C@]12CO3` showed an IC50 [1] greater than 200 µg/mL, an IC50 [2] greater than 200 µg/mL and an IC50 [3] greater than 200 µg/mL. The IC50 [4] was greater than 200 µg/mL and the IC50 [5] was greater than 200 µg/mL.
For `C=C1[C@@H]2CC[C@H]3[C@@]45CO[C@@](O)([C@@H](O)[C@@H]4C(C)(C)C=CC5=O)[C@]3(C2)[C@@H]1O`, the IC50 [1] was 15.3 µg/mL (≈ 44.1 µM), the IC50 [2] was 83.6 µg/mL (≈ 241 µM) and the IC50 [3] was 52.8 µg/mL (≈ 152 µM). The IC50 [4] was greater than 100 µg/mL and the IC50 [5] was 33.2 µg/mL (≈ 96 µM).
`C=C(C(=O)O)[C@@H]1CC[C@@H]2[C@@H](C1)C(=O)[C@@H](O)[C@@H]1C(C)(C)[C@@H]3CC(=O)[C@@]21CO3` gave an IC50 [1] greater than 200 µg/mL, an IC50 [2] greater than 200 µg/mL and an IC50 [3] greater than 200 µg/mL. The IC50 [4] was greater than 200 µg/mL and the IC50 [5] was greater than 100 µg/mL.
In the case of `C=C1C(=O)[C@]23C[C@H]1CC[C@H]2[C@]12CO[C@@H](CC1=O)C(C)(C)[C@H]2[C@H](OC(C)=O)C3=O`, the IC50 [1] is reported as 10.1 µg/mL (≈ 26.1 µM), the IC50 [2] is reported as 36.7 µg/mL (≈ 94.9 µM) and the IC50 [3] is reported as 11.3 µg/mL (≈ 29.2 µM). For the same compound, the IC50 [4] was 31.9 µg/mL (≈ 82.5 µM) and the IC50 [5] was 19.3 µg/mL (≈ 49.9 µM).
`C=C1C(=O)[C@]23C[C@H]1CC[C@H]2[C@]1(COC3=O)C(=O)C=CC(C)(C)[C@H]1C=O` showed an IC50 [1] of 2.26 µg/mL (≈ 6.6 µM), an IC50 [2] of 0.257 µg/mL (≈ 0.751 µM) and an IC50 [3] of 20.7 µg/mL (≈ 60.3 µM). For the same compound, the IC50 [4] was 47.4 µg/mL (≈ 138 µM) and the IC50 [5] was 0.27 µg/mL (≈ 0.789 µM).
`C=C1[C@@H]2CC[C@H]3[C@@]45CO[C@@](O)([C@@H](O)[C@@H]4C(C)(C)CC[C@@H]5O)[C@]3(C2)[C@@H]1O` showed an IC50 [1] greater than 100 µg/mL, an IC50 [2] greater than 100 µg/mL and an IC50 [3] greater than 200 µg/mL. For the same compound, the IC50 [4] was greater than 100 µg/mL and the IC50 [5] was greater than 100 µg/mL.
With `C=CC(=O)O[C@H]1[C@@H]2C(C)(C)C=CC(=O)[C@]23CO[C@]1(O)[C@@]12C[C@@H](CC[C@@H]31)C(=C)C2=O` the IC50 [1] was 33 µg/mL (≈ 82.8 µM), the IC50 [2] was 6.56 µg/mL (≈ 16.5 µM) and the IC50 [3] was 4.33 µg/mL (≈ 10.9 µM). For the same compound, the IC50 [4] was 41.2 µg/mL (≈ 103 µM) and the IC50 [5] was 5.05 µg/mL (≈ 12.7 µM).
Work on `C=C1C(=O)[C@]23C[C@H]1CC[C@H]2[C@@]12CO[C@@]3(O)C(=O)[C@@H]1C(C)(C)C=CC2=O` yielded an IC50 [1] of 33.2 µg/mL (≈ 96.9 µM), an IC50 [2] of 59.6 µg/mL (≈ 174 µM) and an IC50 [3] of 7.28 µg/mL (≈ 21.3 µM). It also gave an IC50 [4] of 12 µg/mL (≈ 35 µM) and an IC50 [5] of 4.94 µg/mL (≈ 14.4 µM).
Work on `C=C1[C@@H]2CC[C@H]3[C@@]45CO[C@@](O)([C@@H](O)[C@@H]4C(C)(C)C=C[C@@H]5O)[C@]3(C2)[C@@H]1O` yielded an IC50 [1] greater than 100 µg/mL, an IC50 [2] greater than 100 µg/mL and an IC50 [3] greater than 200 µg/mL. For the same compound, the IC50 [4] was greater than 100 µg/mL and the IC50 [5] was greater than 100 µg/mL.
In the case of `C=C1C(=O)[C@]23C[C@H]1CC[C@H]2[C@@]12CO[C@@]3(O)[C@@H](OC(=O)CBr)[C@@H]1C(C)(C)C=CC2=O`, the IC50 [1] is reported as 4.86 µg/mL (≈ 10.4 µM), the IC50 [2] is reported as 0.85 µg/mL (≈ 1.83 µM) and the IC50 [3] is reported as 2.06 µg/mL (≈ 4.43 µM). The IC50 [4] was 4.52 µg/mL (≈ 9.71 µM) and the IC50 [5] was 1.5 µg/mL (≈ 3.22 µM).
With `C[C@H]1C(=O)[C@]23C[C@H]1CC[C@H]2[C@@]12CO[C@@]3(O)[C@@H](O)[C@@H]1C(C)(C)CCC2=O` the IC50 [1] was greater than 100 µg/mL, the IC50 [2] was greater than 200 µg/mL and the IC50 [3] was greater than 200 µg/mL. The IC50 [4] was greater than 200 µg/mL and the IC50 [5] was greater than 100 µg/mL.
For `C=C1C(=O)[C@]23C[C@H]1CC[C@H]2[C@]1(COC(C)=O)C(=O)C=CC(C)(C)[C@H]1[C@H](OC(C)=O)C3=O`, the IC50 [1] was 61.8 µg/mL (≈ 144 µM), the IC50 [2] was 24.6 µg/mL (≈ 57.4 µM) and the IC50 [3] was 9.71 µg/mL (≈ 22.7 µM). The IC50 [4] was 17.9 µg/mL (≈ 41.8 µM) and the IC50 [5] was 28.1 µg/mL (≈ 65.6 µM).
For `C=C1C(=O)[C@]23C[C@H]1CC[C@H]2[C@@]12CO[C@@]3(O)[C@@H](O)[C@@H]1C(C)(C)C=CC2=O`, the IC50 [1] was 2.49 µg/mL (≈ 7.23 µM), the IC50 [2] was 0.15 µg/mL (≈ 0.436 µM) and the IC50 [3] was 1.8 µg/mL (≈ 5.23 µM). The IC50 [4] was 1.34 µg/mL (≈ 3.89 µM) and the IC50 [5] was 1.32 µg/mL (≈ 3.83 µM).
Compound `C=C1C(=O)[C@]23C[C@H]1CC[C@H]2[C@@]12CO[C@@]3(O)[C@@H](OC(C)=O)[C@@H]1C(C)(C)C=CC2=O` has an IC50 [1] of 31 µg/mL (≈ 80.2 µM), an IC50 [2] of 20.1 µg/mL (≈ 51.9 µM) and an IC50 [3] of 11.9 µg/mL (≈ 30.9 µM). The IC50 [4] was 80.6 µg/mL (≈ 209 µM) and the IC50 [5] was 25 µg/mL (≈ 64.7 µM).
Work on `C=C1C(=O)[C@]23C[C@H]1CC[C@H]2[C@]12CO[C@@H](CC1=O)C(C)(C)[C@H]2[C@H](OC(=O)CCCCl)C3=O` yielded an IC50 [1] of 68.1 µg/mL (≈ 152 µM), an IC50 [2] greater than 100 µg/mL and an IC50 [3] of 42.6 µg/mL (≈ 95 µM). The IC50 [4] was greater than 100 µg/mL and the IC50 [5] was greater than 100 µg/mL.
For `C=C1C(=O)[C@]23C[C@H]1CC[C@H]2[C@]1(COC3=O)C(=O)C=CC(C)(C)[C@H]1C(=O)O`, the IC50 [1] was greater than 100 µg/mL, the IC50 [2] was greater than 100 µg/mL and the IC50 [3] was greater than 200 µg/mL. The IC50 [4] was greater than 100 µg/mL and the IC50 [5] was greater than 100 µg/mL.
Compound `C=C1C(=O)[C@]23C[C@H]1CC[C@H]2[C@]12CO[C@@H](CC1=O)C(C)(C)[C@H]2[C@H](OC(=O)CCCl)C3=O` has an IC50 [1] of 20.3 µg/mL (≈ 46.6 µM), an IC50 [2] of 22.7 µg/mL (≈ 52.1 µM) and an IC50 [3] of 10.5 µg/mL (≈ 24.1 µM). For the same compound, the IC50 [4] was 51 µg/mL (≈ 117 µM) and the IC50 [5] was 8.88 µg/mL (≈ 20.4 µM).
`C=C1C(=O)[C@]23C[C@H]1CC[C@H]2[C@]12CO[C@@H](CC1=O)C(C)(C)[C@H]2[C@H](O)C3=O` showed an IC50 [1] of 27.2 µg/mL (≈ 79 µM), an IC50 [2] of 8.87 µg/mL (≈ 25.8 µM) and an IC50 [3] of 16.9 µg/mL (≈ 49.2 µM). The IC50 [4] was 33.2 µg/mL (≈ 96.3 µM) and the IC50 [5] was 3.73 µg/mL (≈ 10.8 µM).
In the case of `C=C1C(=O)[C@]23C[C@H]1CC[C@H]2[C@]12CO[C@@H](CC1=O)C(C)(C)[C@H]2[C@H](OC(=O)CBr)C3=O`, the IC50 [1] is reported as 10.9 µg/mL (≈ 23.4 µM), the IC50 [2] is reported as 67.1 µg/mL (≈ 144 µM) and the IC50 [3] is reported as 14.9 µg/mL (≈ 32.1 µM). It also gave an IC50 [4] of 26.6 µg/mL (≈ 57.1 µM) and an IC50 [5] of 4.54 µg/mL (≈ 9.76 µM).
Compound `C=C1C(=O)[C@]23C[C@H]1CC[C@H]2[C@@]12CO[C@@]3(OC(C)=O)[C@@H](O)[C@@H]1C(C)(C)C=CC2=O` has an IC50 [1] of 38.9 µg/mL (≈ 101 µM), an IC50 [2] greater than 100 µg/mL and an IC50 [3] of 13.1 µg/mL (≈ 34 µM). For the same compound, the IC50 [4] was 74.7 µg/mL (≈ 193 µM) and the IC50 [5] was 7.23 µg/mL (≈ 18.7 µM).
